From ChEMBL document CHEMBL3244389, “Cephalosporin degradations” (J Med Chem, 1977)

Tests used:
[1] = Retardation factor of the compound in deionized water at 1 g at pH 3.3 after 90 mins by TLC analysis; format: physicochemical; settings: pH 3.3, 1.5 h
[2] = Drug degradation in oxygen-18 enriched water assessed as 5,3-formyl-3,6-dihydro-6-phenyl-2,5(lH,4H)-pyrazinedione level at 60 mg by mass spectroscopic analysis; settings: in vivo
[3] = Drug degradation in deionized water assessed as 5,3-formyl-3,6-dihydro-6-phenyl-2,5(lH,4H)-pyrazinedione level at 100 mg at pH 3.3 after 90 mins by IR/TLC analysis; format: physicochemical; settings: pH 3.3, 1.5 h
[4] = Drug degradation in deionized water assessed as 3-hydroxy-4-methyl-2(5H)-thiophenone level at 100 mg at pH 3.3 after 90 mins by IR/TLC analysis; format: physicochemical; settings: pH 3.3, 1.5 h
[5] = Drug recovery in Purdue-Wistar rat feces at 1.6 mg/ml, po after 24 hrs; settings: faeces
[6] = Drug recovery in ICR mouse feces at 1.6 mg/ml, po after 24 hrs; settings: faeces
Mus musculus = assay: Toxicity in po dosed ICR mouse; format: organism-based; settings: in vivo

O=CC1NC(=O)C(c2ccccc2)NC1=O (stereo not drawn)
Rf [1]: 0.78

CC1=C(O)C(=O)SC1
Rf [1]: 0.91

CC1CSC(C2NC(=O)C(c3ccccc3)NC2=O)N=C1C(=O)[O-].[Na+] (stereo not drawn)
Stability [2]: Unstable | Stability [3]: Unstable | Stability [4]: Unstable

CC1=C(C(=O)O)N2C(=O)[C@@H](NC(=O)[C@H](N)c3ccccc3)[C@H]2SC1 [CEPHALEXIN ANHYDROUS]
dose excreted at 24 h [5]: 99% | dose excreted at 24 h [6]: 99%

CC1=C(C(=O)O)N2C(=O)[C@@H](NC(=O)[C@H](N)c3ccccc3)[C@H]2SC1.O [CEPHALEXIN]
LD (Mus musculus): > 5000 mg/kg
